In the supplement of paper PMC11061612:

How the values were obtained:
NCI-H2795 (Mesothelioma) = assay: Bliss excess, mean over the matrix (fraction); higher = more synergy
How it was run: (§1)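 Bliss excess equals the observed combination effect minus the expected value EA + EB − EA·EB, where EA and EB are the effects of each agent alone. Combination Emax is the second-highest inhibition within the matrix. Inhibition was scaled from CellTiter-Glo 2.0 luminescence, with 0 set by vehicle wells and 1 by blank wells, after 72 hours of two-drug dosing of cells plated in 1536-well plates.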

[1] = test system: RPMI-6666 (Non-Cancerous); assay: as above
How it was run: as §1

[2] = test system: MDA-MB-468 (Breast Carcinoma); assay: as above
How it was run: as §1

[3] = test system: LoVo (Colorectal Carcinoma); assay: as above
How it was run: as §1

[4] = test system: SW1271 (Small Cell Lung Carcinoma); assay: as above
How it was run: as §1

[5] = test system: SU-DHL-6 (B-Cell Non-Hodgkin's Lymphoma); assay: as above
How it was run: as §1

Mewo (Melanoma) = assay: as above
How it was run: as §1

[6] = test system: CAL-54 (Kidney Carcinoma); assay: as above
How it was run: as §1

[7] = test system: K5 (Thyroid Gland Carcinoma); assay: as above
How it was run: as §1

SH-4 (Melanoma) = assay: as above
How it was run: as §1

[8] = test system: Hs-633T (Other Solid Carcinomas); assay: combination Emax (second highest fraction inhibited in the dose matrix, 72 h); higher = more inhibition; extreme values may be limits of the assay
How it was run: as §1

[9] = test system: PCI-30 (Head and Neck Carcinoma); assay: as above
How it was run: as §1

[10] = test system: SW1116 (Colorectal Carcinoma); assay: as above
How it was run: as §1

[11] = test system: SUP-T1 (T-Lymphoblastic Leukemia); assay: as above
How it was run: as §1

NCI-H2461 (Mesothelioma) = assay: as above
How it was run: as §1

[12] = test system: LoVo (Colorectal Carcinoma); assay: as above
How it was run: as §1

[13] = test system: RT-112 (Bladder Carcinoma); assay: as above
How it was run: as §1

[14] = test system: NCI-H69 (Small Cell Lung Carcinoma); assay: as above
How it was run: as §1

[15] = test system: EN (Endometrial Carcinoma); assay: as above
How it was run: as §1

[16] = test system: HARA (Squamous Cell Lung Carcinoma); assay: as above
How it was run: as §1

Row | SMILES | Bliss excess (NCI-H2795 (Mesothelioma)) | Bliss excess [1] | Bliss excess [2] | Bliss excess [3] | Bliss excess [4] | Bliss excess [5] | Bliss excess (Mewo (Melanoma)) | Bliss excess [6] | Bliss excess [7] | Bliss excess (SH-4 (Melanoma)) | combination Emax [8] | combination Emax [9] | combination Emax [10] | combination Emax [11] | combination Emax (NCI-H2461 (Mesothelioma)) | combination Emax [12] | combination Emax [13] | combination Emax [14] | combination Emax [15] | combination Emax [16]
1 | O=C(c1cc(Cc2n[nH]c(=O)c3ccccc23)ccc1F)N1CCN(C(=O)C2CC2)CC1 [Olaparib] + COc1nnc2ccc(N3CCC(c4ccc(OCCN5CCN(C)C(=O)[C@H]5C)cc4)CC3)nn12 [AZD5153] (first compound max 10 µM, 7x7, partner max 1 µM) | -0.085 | -0.0487 | -0.0737 | -0.0338 | -0.0668 | -0.0338 | -0.074 | -0.0923 | -0.0392 | -0.11 | 0.612 | 0.251 | 0.332 | 0.792 | 0.42 | 0.436 | 0.157 | 0.488 | 0.347 | 0.582
2 | O=C(c1cc(Cc2n[nH]c(=O)c3ccccc23)ccc1F)N1CCN(C(=O)C2CC2)CC1 [Olaparib] + CC1(C)CCC(CN2CCN(c3ccc(C(=O)NS(=O)(=O)c4ccc(NCC5CCOCC5)c([N+](=O)[O-])c4)c(Oc4cnc5[nH]ccc5c4)c3)CC2)=C(c2ccc(Cl)cc2)C1 [Venetoclax] (first compound max 10 µM, 7x7, partner max 1 µM) | -0.0329 | 0.134 | -0.0372 | -0.038 | -0.0258 | 0.104 | -0.0766 | -0.0496 | -0.0388 | -0.0355 | 0.186 | 0.173 | 0.097 | 0.479 | 0.203 | 0.206 | 0.0956 | 0.614 | 0.29 | 0.137
3 | C[C@@H](Nc1cc(F)cc(F)c1)c1cc(C(=O)N(C)C)cc2c(=O)cc(N3CCOCC3)oc12 [AZD8186] + C1CN(CCC1(C(=O)N[C@@H](CCO)C2=CC=C(C=C2)Cl)N)C3=NC=NC4=C3C=CN4 [AZD5363] (first compound max 10 µM, 7x7, partner max 10 µM) | -0.106 | -0.086 | -0.0305 | -0.0372 | -0.0388 | 0.0024 | -0.001 | -0.0774 | -0.062 | -0.0317 | 0.297 | 0.313 | 0.206 | 0.553 | 0.457 | 0.644 | 0.254 | 0.536 | 0.536 | 0.467
4 | C=CCn1c(=O)c2cnc(Nc3ccc(N4CCN(C)CC4)cc3)nc2n1-c1cccc(C(C)(C)O)n1 [AZD1775] + Nc1ccn([C@@H]2O[C@H](CO)[C@@H](O)C2(F)F)c(=O)n1 [Gemcitabine] (first compound max 1 µM, partner max 0.3 µM) | -0.0549 | -0.0197 | 0.0073 | -0.0005 | -0.0558 | 0.0556 | -0.0623 | -0.0031 | -0.0194 | -0.0092 | 0.863 | 0.677 | 0.405 | 0.862 | 0.63 | 0.808 | 0.956 | 0.611 | 0.581 | 0.912
5 | O=C(c1cc(Cc2n[nH]c(=O)c3ccccc23)ccc1F)N1CCN(C(=O)C2CC2)CC1 [Olaparib] + CN(CC[C@H](CSC1=CC=CC=C1)NC2=C(C=C(C=C2)S(=O)(=O)NC(=O)C3=CC=C(C=C3)N4CCC(CC4)[C@H](C5=CC=CC=C5C6=CC=C(C=C6)Cl)O)S(=O)(=O)C(F)(F)F)CCO [AZD4320] (first compound max 10 µM, 7x7, partner max 1 µM) | -0.0086 | 0.0694 | -0.043 | -0.0225 | -0.0291 | 0.0091 | -0.0615 | -0.0021 | -0.0148 | -0.0505 | 0.2 | 0.188 | 0.118 | 0.602 | 0.17 | 0.187 | 0.153 | 0.954 | 0.297 | 0.162
6 | N#Cc1cnc(Nc2cc(NC[C@H]3CNCCO3)c(C(F)(F)F)cn2)cn1 [SRA737] + CCc1c2c(nc3ccc(O)cc13)-c1cc3c(c(=O)n1C2)COC(=O)[C@]3(O)CC [SN-38] (first compound max 10 µM, 7x7, partner max 0.3 µM) | -0.0977 | -0.0707 | -0.0136 | -0.0227 | -0.0752 | 0.0295 | 0.022 | -0.0693 | -0.043 | -0.111 | 0.831 | 0.843 | 0.616 | 0.796 | 0.638 | 0.775 | 0.95 | 0.82 | 0.678 | 0.898
7 | C[C@@H]1COCCN1c1cc(C2([S@](C)(=N)=O)CC2)nc(-c2ccnc3[nH]ccc23)n1 [AZD6738] + Nc1ccn([C@@H]2O[C@H](CO)[C@@H](O)C2(F)F)c(=O)n1 [Gemcitabine] (first compound max 10 µM, 7x7, partner max 0.3 µM) | -0.0533 | -0.034 | 0.0233 | -0.0243 | 0.004 | 0.118 | 0.0475 | 0.0372 | 0.034 | -0.0029 | 0.937 | 0.795 | 0.553 | 0.852 | 0.714 | 0.846 | 0.936 | 0.851 | 0.66 | 0.927
8 | O=C(c1cc(Cc2n[nH]c(=O)c3ccccc23)ccc1F)N1CCN(C(=O)C2CC2)CC1 [Olaparib] + Cc1c2c(nn1C)CSCc1cc(n(C)n1)CSc1cc(c3ccccc3c1)OCCCc1c(C(=O)O)n(C)c3c-2c(Cl)ccc13 [AZD5991] (first compound max 10 µM, 7x7, partner max 1 µM) | -0.0207 | 0.017 | -0.0391 | -0.0591 | -0.0523 | 0.0065 | -0.0652 | -0.0272 | -0.0563 | -0.0412 | 0.184 | 0.103 | 0.0456 | 0.477 | 0.127 | 0.162 | 0.672 | 0.239 | 0.476 | 0.277
9 | CN(CCO)CC[C@H](CSc1ccccc1)Nc1ccc(S(=O)(=O)NC(=O)c2ccc(N3CCC([C@@H](O)c4ccccc4-c4ccc(Cl)cc4)CC3)cc2)cc1S(=O)(=O)C(F)(F)F [AZD4320] + Nc1ccn([C@@H]2O[C@H](CO)[C@@H](O)C2(F)F)c(=O)n1 [Gemcitabine] (first compound max 1 µM, 7x7, partner max 0.3 µM) | -0.0094 | -0.0051 | -0.0034 | -0.0476 | 0.0692 | -0.0131 | 0.0099 | -0.0034 | 0.0121 | 0.0224 | 0.992 | 0.743 | 0.184 | 0.846 | 0.641 | 0.7 | 0.507 | 0.946 | 0.337 | 0.8
10 | C[C@@H](Oc1cc(-c2cnn(C3CCNCC3)c2)cnc1N)c1c(Cl)ccc(F)c1Cl [Crizotinib] + Cn1cnc2c(F)c(Nc3ccc(Br)cc3Cl)c(C(=O)NOCCO)cc21 [Selumetinib] (first compound max 10 µM, 7x7, partner max 10 µM) | -0.0974 | -0.0622 | -0.0996 | -0.0546 | 0.0503 | -0.0205 | -0.0431 | -0.0135 | -0.0788 | -0.0768 | 0.896 | 0.238 | 0.518 | 0.823 | 0.56 | 0.557 | 0.819 | 0.621 | 0.401 | 0.59
11 | Cc1cc2ncnn2cc1Nc1ncc2c(n1)n(C1CCOCC1)c(=O)n2C [AZD7648] + COc1cc([C@@H]2c3cc4c(cc3[C@@H](O[C@@H]3O[C@@H]5CO[C@@H](C)O[C@H]5[C@H](O)[C@H]3O)[C@H]3COC(=O)[C@H]23)OCO4)cc(OC)c1O [Etoposide] (first compound max 10 µM, 7x7, partner max 10 µM) | -0.0093 | 0.0224 | 0.0376 | 0.0689 | 0.0441 | 0.0914 | 0.0524 | 0.0605 | 0.1 | 0.0744 | 0.842 | 0.553 | 0.192 | 0.85 | 0.553 | 0.704 | 0.798 | 0.67 | 0.481 | 0.627
